“And” between values parts separate entries of the source, which are not always exact repeats. Identical values can stand only once. Like-named read-outs stand apart in the source and are kept apart here.
Columns and labels:
[1] = test system: B16 melanoma cells (highly metastatic subline, F10); assay: B16 melanoma in vitro cloning (colony forming) assay, 2 hour exposure; assay type: cell-based; settings: read-out: IC50: concentration which inhibits cloning efficiency of B16 melanoma cells by 50%
Protocol: Initially, the cytotoxic activity of the Formula (I) and Formula (IA) compounds used in the pharmaceutical compositions and methods of treatment of the instant invention was evaluated in vitro using B16 melanoma cells according to the following assay:
B16 melanoma (highly metastatic subline, F10) are used and maintained as monolayer cultures in Minimal Essential Media (Grand Island Biological Co., Grand Island, N.Y. ) supplemented with 10% calf serum, 1% antibiotics in a 5% CO2 humidified incubator at 37° C. Asynchronous populations of cells are harvested and replated to 5000 cells/plate in sterile 60 mm×15 mm petri plates. Plates are incubated overnight to allow attachment of the cells to the plate. Cells are treated with a Formula (I) or Formula (IA) compound or cisplatin under sterile conditions, allowed to react for 2 hours followed by aspiration of medium. Plates are washed one time with 5 ml of phosphate buffered saline (PBS), followed by the addition of 5 ml of fresh media. Plates are incubated for 5 days at 37° in a CO2 incubator. Viability is measured by the ability of a cell to form a colony of greater than 50 cells. Colonies are fixed with 0.5% crystal violet in 95% ethanol. Plates are dried and counted with a Biotran III Automatic Count Totalizer (New Brunswick Scientific Co., Edison, N.J.). Mean and standard deviation of triplicate samples are determined for each drug concentration. The data are analyzed by plotting the log of the survival fraction (number of colonies in drug treated plates/number of colonies in controls) versus the drug concentration.
^(a) concentration which inhibits cloning efficiency of B16 melanoma
cells by 50% on a 2hour exposure.

[2] = test system: M5076 reticulum cell sarcoma; assay: ip M5076 reticulum cell sarcoma assay in mice; settings: for MTD (maximally tolerated dose): B6D2F1 female mice; for MTD (maximally tolerated dose) / ILS max (maximum increase in lifespan): ip qD × 10; for ILS max (maximum increase in lifespan): ip M5076 sarcoma mice, slash = separate experiments
Protocol: Another chemosensitive tumor model is intraperitoneally (ip) implanted M5076 reticulum cell sarcoma in mice. In this system B6D2F1 female mice are inoculated with 0.5 ml of a 10 percent weight:volume (w:v) brei of M5076 prepared from pooled subcutaneous (sc) tumors excised at about 21 days from c57B1/6 donor mice. Drugs are administered ip. Daily treatment is begun 24 hours after implantation and is continued for ten days. The treatment regimen for M5076 is more prolonged than for P388 because of the slower growth rate and longer control survival time of the M5076 tumor.

[3] = test system: human tumor colony forming units; assay: human tumor cloning assay (all tumor types); assay type: cell-based
Protocol: The cytotoxic activity of Compound No. 2 from TABLE A, namely μ-[1,2-bis(diphenylphosphino)ethane]bis-[chlorogold (I)], was also determined in a human tumor cloning assay. This procedure is described as follows:
[Salmon, et al., N. Engl. J. Med., 298:1321 (1978)].

ADJ-PC6 Plasmacytoma = assay: ADJ-PC6 plasmacytoma assay
Protocol: (§1) Tumor cells are carried by serial sc passage in BALB/c female mice and then collected aseptically on ca. Day 21 and minced in Hank's balanced salt solution. The cells are then dispersed by homogenization in a loose-fitting teflon glass homogenizer, and cell concentration is adjusted to 4×10^6 viable ([…]) cells per ml by hemocytometer counts. A total of 0.5 ml (2×10^6 cells) is implanted sc on the right flank of BALB/c female mice in groups of 8. Treatment is given ip on Days 1-10, and tumors are measured in perpendicular diameters with a vernier caliper on Day 18.
(§2) ^(b) maximally tolerated dose for BALB/c female mice on an ip qD

Ovary tumor = settings: Table 3, Ovary; response = ≤50% survival of tumor colony forming units
Description: (§4) Tumor Specimens: Specimens were collected using asceptic technique and transported in medium containing Penicillin, Streptomycin, and Amphotericin B. Specimens which could not be immediately processed were minced into fragments 5 mm^3 or smaller, prior to transport. Effusions were collected with ten units of preservative free heparin per ml of effusion. Specimens were processed to obtain cell suspensions as soon as possible after removal from the patient.
(§5) Culture Methods: A two-layer soft agar culture system was used in these studies. […] Cell counts were performed on a hemacytometer after lysis of erythrocytes in acetic acid. A total of 500,000 nucleated cells were plated in a volume of 1 ml (0.3 percent agar) over 1 ml base layers (0.6 percent agar) in each culture. Cultures were incubated in humidified 37° C. incubators with an atmosphere of 5 percent CO2 in air and control plates monitored for growth using an inverted microscope. At the time of maximum colony formation (7-21 days in culture) final colony counts were obtained with a Bausch and Lomb FAS II image analysis system. Objects presenting a circular profile in two dimensions with a minimum diameter of 60 μm were scored as colonies by the system.
(§6) Drug Treatment: A total of six untreated or vehicle treated cultures were plated for determination of control growth in each experiment. […]

Breast tumor = settings: Table 3, Breast; response = ≤50% survival of tumor colony forming units
Description: as §4, §5, §6

Lung tumor = settings: Table 3, Lung; response = ≤50% survival of tumor colony forming units
Description: as §4, §5, §6

Unknown primary tumor = settings: Table 3, Unknown primary; response = ≤50% survival of tumor colony forming units
Description: as §4, §5, §6

Kidney tumor = settings: Table 3, Kidney; response = ≤50% survival of tumor colony forming units
Description: as §4, §5, §6

Corpus uterus tumor = settings: Table 3, Corpus uterus; response = ≤50% survival of tumor colony forming units
Description: as §4, §5, §6

Melanoma = settings: Table 3, Melanoma; response = ≤50% survival of tumor colony forming units
Description: as §4, §5, §6

B16 melanoma = assay: in vivo ip B16 melanoma assay
Protocol: (§7) The cytotoxic activity of several compounds of Formula (I) was evaluated in vivo using B16 melanoma cells according to the following assay:
(§8) In this system, groups of eight B6D2F1 mice are inoculated ip with 0.5 ml of a 10% (w:v) brei of B16 melanoma prepared from pooled sc tumors excised at 14.noteq.21 days from C67B1 /6 donor mice. Daily treatment is begun 24 hours after tumor implantation and is continued daily for 10 days. The route of drug administration is ip. The mice are monitored daily for survival for 60 days. Antitumor activity is assessed by prolongation of median survival time.

[4] = test system: mammary adenocarcinoma 16/c; assay: sc mammary adenocarcinoma 16/c assay
Protocol: (§9) The mammary adenocarcinoma 16/c tumor is implanted sc in C3H mice, and the Formula (I) compound is administered ip on days 1, 5, 9, 13 and 17. Tumors are measured 3 weeks after implantation, and activity is assessed by degree of tumor growth inhibition.

[5] = ADJ-PC6 plasmacytoma assay; settings: mouse, in vivo, ip
Protocol: as §1, §2

[6] = ip Lewis Lung tumor assay; assay type: in vivo; design: ILS: dose or concentration left out as unconfirmed; settings: in vivo; q4D×4 regimen
Description: (§3) The protocol for carrying out this tumor assay is well known to those of skill in the art.

Lewis Lung tumor = assay: ip Lewis Lung tumor assay; assay type: in vivo; design: ILS: dose or concentration left out as unconfirmed; settings: at MTD of […] mg/kg, q4D×4 regimen
Description: as §3

cells = settings: Struck et al., J. Med. Chem. (1966); cited from earlier work
in vivo = settings: mouse, ip
[7] = in vivo ip B16 melanoma assay; settings: mouse, in vivo, ip
Protocol: as §7, §8

[8] = sc mammary adenocarcinoma 16/c assay; settings: mouse, in vivo
Protocol: as §9

[9] = ip Madison 109 lung carcinoma tumor assay; settings: in vivo
[10] = test system: Madison 109 lung carcinoma; assay: ip Madison 109 lung carcinoma tumor assay; settings: at MTD of 16 mg/kg, q4D×4 regimen
[11] = Table 1, ≤30% survival of tumor colony forming units, 10 μg/ml, continuous exposure
[12] = Table 1, ≤50% survival of tumor colony forming units, 10 μg/ml, continuous exposure
[13] = Table 3, all tumor types, response = ≤50% survival of tumor colony forming units

[Cl][Au][PH](CC[PH]([Au][Cl])(c1ccccc1)c1ccccc1)(c1ccccc1)c1ccccc1 [Compound 2, μ-[1,2-bis(diphenylphosphino)ethane]bis-[chlorogold (I)]]
IC50 ([1]; Table A, Formula (I)): 8 µM | MTD (maximally tolerated dose) ([2]; Table C): 4 mg/kg | ILS max (maximum increase in lifespan) ([2]; Table C, compound 2: seven experiments): 76 ± 30% | activity in the ip M5076 reticulum cell sarcoma assay ([2]; in words, based on Tables C and D): good activity | # responses ≤30%/# evaluable [3, 11]: 6/19 | responses ≤30% (% of evaluable) [3, 11]: 32% | # responses ≤50%/# evaluable [3, 12]: 11/19 | responses ≤50% (% of evaluable) [3, 12]: 58% | # responses/# evaluable, TOTALS [3, 13]: 11/19 | responses, TOTALS (% of evaluable) [3, 13]: 58% | in vitro cytotoxic activity against primary human tumor cells ([3]; in words): substantial in vitro cytotoxic activity | % Inhibition of tumor growth (ADJ-PC6 Plasmacytoma; Table G, ip days 1-10, tumors measured day 18, slash = separate experiments): 96% and 93% | antitumor activity in ADJ-PC6 Plasmacytoma (ADJ-PC6 Plasmacytoma; in words, based on Table G): excellent antitumor activity | MTD (maximally tolerated dose) (P388 leukemia; Table B, B6D2F1 female mice, ip qD × 5): 6 mg/kg | # responses/# evaluable (Ovary tumor): 4/6 | # responses/# evaluable (Breast tumor): 1/3 | # responses/# evaluable (Lung tumor): 1/3 | # responses/# evaluable (Unknown primary tumor): 2/3 | # responses/# evaluable (Kidney tumor): 2/2 | # responses/# evaluable (Corpus uterus tumor): 1/1 | # responses/# evaluable (Melanoma): 0/1 | MTD (maximally tolerated dose) (B16 melanoma; Table E, B6D2F1 mice, ip qD × 10): 5 um/kg | MTD (maximally tolerated dose) ([4]; Table F, C3H mice, intermittent ip regimen): 9 um/kg

c1ccc(P(CCP(c2ccccc2)c2ccccc2)c2ccccc2)cc1 [Compound 33, bis(1,2-diphenylphosphino)-ethane]
IC50 ([1]; Mus musculus, B16, Table AI, Formula (IA)): 60 µM | MTD (maximally tolerated dose) ([2]; Table D): 6 mg/kg | ILS max (maximum increase in lifespan) ([2]; Table D): 70% and 96% and 68% | MTD [5]: 4 mg/kg | MTD (ADJ-PC6 Plasmacytoma; one experiment): 6 mg/kg | tumor growth inhibition (ADJ-PC6 Plasmacytoma; one experiment, at MTD of 6 mg/kg): 94% | tumor growth inhibition (ADJ-PC6 Plasmacytoma; second experiment, at MTD of 4 mg/kg): 49% | MTD [6]: 12 mg/kg | ILS (Lewis Lung tumor): 69% | ILS (maximum increase in lifespan) (P388 leukemia; Table BI, ip P388 leukemia mice, ip days 1-5, slash-separated figures are separate experiments, compound 33: 41 experiments): 98 ± 26% | alleged cytotoxic activity (cells): alleged cytotoxic activity | MTD (in vivo): 16 mg/kg | MTD [7]: 5 mg/kg | ILS (B16 melanoma; at MTD of 5 mg/kg, three separate experiments, listed as Compound No. 2 from Table BI, 5 mg/kg): 64% and 49% and 39% | MTD ([8]; ip): 30 mg/kg | MTD ([8]; iv): 32 mg/kg | tumor inhibition ([4]; iv, at MTD of 32 mg/kg): 95% | MTD [9]: 16 mg/kg | ILS [10]: 50%

— patent US4857549A, “Antitumor compounds” (priority 1988, dated 1989)
